pIC50: −log10 of the molar value.
Experiments:
Assay type in all cases: functional, cell-based
[1] = tested on: Ca-Ski; assay: cells; details: Homo sapiens;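 further: cell viability assay measuring inhibition of Ca-Ski cell growth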
Description: SANGER: Inhibition of human Ca-Ski cell growth in a cell viability assay.

[2] = tested on: Calu-1; assay: SANGER: Inhibition of human Calu-1 cell growth in a cell viability assay.
[3] = tested on: D-247MG; assay: cells; details: Homo sapiens
Description: SANGER: Inhibition of human D-247MG cell growth in a cell viability assay.

[4] = tested on: D-336MG; assay: cells; details: Homo sapiens
Description: SANGER: Inhibition of human D-336MG cell growth in a cell viability assay.

[5] = tested on: Daudi; assay: cells; details: Homo sapiens;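 further: growth inhibition of Daudi cells, read out by a viability assay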
Description: SANGER: Inhibition of human Daudi cell growth in a cell viability assay.

[6] = tested on: EFE-184; assay: cells; details: Homo sapiens
Description: SANGER: Inhibition of human EFE-184 cell growth in a cell viability assay.

[7] = tested on: EFO-27; assay: cells; details: Homo sapiens;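 further: growth inhibition of EFO-27 cells, read out with a cell viability assay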
Description: SANGER: Inhibition of human EFO-27 cell growth in a cell viability assay.

[8] = tested on: HCC1937; assay: cells; details: Homo sapiens;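 further: growth inhibition measured with a cell viability read-out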
Description: SANGER: Inhibition of human HCC1937 cell growth in a cell viability assay.

[9] = tested on: HT-1376; assay: cells; details: Homo sapiens
Description: SANGER: Inhibition of human HT-1376 cell growth in a cell viability assay.

[10] = tested on: HT-29; assay: cells; details: Homo sapiens;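 further: growth inhibition of human HT-29 cells, read out by a cell viability assay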
Description: SANGER: Inhibition of human HT-29 cell growth in a cell viability assay.

[11] = tested on: HuP-T3; assay: cells; details: Homo sapiens;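 further: HuP-T3 cell growth inhibition, read out with a cell viability assay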
Description: SANGER: Inhibition of human HuP-T3 cell growth in a cell viability assay.

[12] = tested on: IGR-1; assay: cells; details: Homo sapiens;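 further: growth inhibition of human IGR-1 cells, read out with a cell viability assay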
Description: SANGER: Inhibition of human IGR-1 cell growth in a cell viability assay.

[13] = tested on: KARPAS-422; assay: cells; details: Homo sapiens
Description: SANGER: Inhibition of human KARPAS-422 cell growth in a cell viability assay.

[14] = tested on: KYSE-510; assay: cells; details: Homo sapiens;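 further: cell viability readout used to measure how strongly growth of the cell line is suppressed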
Description: SANGER: Inhibition of human KYSE-510 cell growth in a cell viability assay.

[15] = tested on: KYSE-520 cell line; assay: cells; details: Homo sapiens;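 further: growth inhibition of human KYSE-520 cells, read out with a viability assay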
Description: SANGER: Inhibition of human KYSE-520 cell growth in a cell viability assay.

[16] = tested on: L-540; assay: cells; details: Homo sapiens;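 further: growth inhibition of the human L-540 cell line, read out with a viability assay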
Description: SANGER: Inhibition of human L-540 cell growth in a cell viability assay.

[17] = tested on: LB996-RCC; assay: cells; details: Homo sapiens
Description: SANGER: Inhibition of human LB996-RCC cell growth in a cell viability assay.

[18] = tested on: LU-165; assay: cells; details: Homo sapiens
Description: SANGER: Inhibition of human LU-165 cell growth in a cell viability assay.

[19] = tested on: MDA-MB-134-VI; assay: cells; details: Homo sapiens
Description: SANGER: Inhibition of human MDA-MB-134-VI cell growth in a cell viability assay.

[20] = tested on: MDA-MB-468; assay: cells; details: Homo sapiens
Description: SANGER: Inhibition of human MDA-MB-468 cell growth in a cell viability assay.

[21] = tested on: MG-63; assay: cells; details: Homo sapiens;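 further: growth inhibition of human MG-63 cells, read out with a cell viability assay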
Description: SANGER: Inhibition of human MG-63 cell growth in a cell viability assay.

[22] = tested on: NCI-H1694; assay: cells; details: Homo sapiens;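 further: cell viability assay measuring inhibition of growth in human NCI-H1694 cells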
Description: SANGER: Inhibition of human NCI-H1694 cell growth in a cell viability assay.

[23] = tested on: NCI-H1703; assay: cells; details: Homo sapiens;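 further: growth inhibition of NCI-H1703 cells, read out via a cell viability assay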
Description: SANGER: Inhibition of human NCI-H1703 cell growth in a cell viability assay.

[24] = tested on: NCI-H1734; assay: cells; details: Homo sapiens;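 further: growth inhibition of human NCI-H1734 cells, read out with a cell viability assay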
Description: SANGER: Inhibition of human NCI-H1734 cell growth in a cell viability assay.

[25] = tested on: NCI-H1755; assay: cells; details: Homo sapiens;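 further: cell viability readout used to measure growth inhibition of NCI-H1755 cells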
Description: SANGER: Inhibition of human NCI-H1755 cell growth in a cell viability assay.

[26] = tested on: NCI-H2009; assay: cells; details: Homo sapiens;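 further: cell viability assay measuring inhibition of NCI-H2009 cell growth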
Description: SANGER: Inhibition of human NCI-H2009 cell growth in a cell viability assay.

[27] = tested on: NCI-H2030; assay: cells; details: Homo sapiens;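 further: growth inhibition of human NCI-H2030 cells, read out by a cell viability assay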
Description: SANGER: Inhibition of human NCI-H2030 cell growth in a cell viability assay.

[28] = tested on: NCI-H2052; assay: cells; details: Homo sapiens;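 further: growth inhibition of NCI-H2052 cells, read out with a cell viability assay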
Description: SANGER: Inhibition of human NCI-H2052 cell growth in a cell viability assay.

[29] = tested on: NCI-H2141; assay: cells; details: Homo sapiens;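 further: growth inhibition of human NCI-H2141 cells, read out with a cell viability assay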
Description: SANGER: Inhibition of human NCI-H2141 cell growth in a cell viability assay.

[30] = tested on: NCI-H2342; assay: cells; details: Homo sapiens;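 further: growth inhibition of the cancer cell line, determined with a cell viability assay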
Description: SANGER: Inhibition of human NCI-H2342 cell growth in a cell viability assay.

[31] = tested on: NCI-H292; assay: cells; details: Homo sapiens;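 further: growth inhibition of NCI-H292 cells, read out with a cell viability assay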
Description: SANGER: Inhibition of human NCI-H292 cell growth in a cell viability assay.

[32] = tested on: NCI-H322M; assay: cells; details: Homo sapiens;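 further: cell viability assay measuring inhibition of growth of human NCI-H322M cells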
Description: SANGER: Inhibition of human NCI-H322M cell growth in a cell viability assay.

[33] = tested on: NCI-H345; assay: cells; details: Homo sapiens;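 further: growth inhibition of NCI-H345 cells measured with a cell viability assay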
Description: SANGER: Inhibition of human NCI-H345 cell growth in a cell viability assay.

[34] = tested on: NCI-H630; assay: cells; details: Homo sapiens;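 further: growth inhibition of NCI-H630 cells, read out with a cell viability assay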
Description: SANGER: Inhibition of human NCI-H630 cell growth in a cell viability assay.

[35] = tested on: SNU-16; assay: cells; details: Homo sapiens;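 further: growth inhibition of human SNU-16 cells, determined with a cell viability readout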
Description: SANGER: Inhibition of human NCI-SNU-16 cell growth in a cell viability assay.

[36] = tested on: P12-Ichikawa; assay: cells; details: Homo sapiens
[37] = tested on: P31-FUJ; assay: cells; details: Homo sapiens;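 further: growth inhibition of P31-FUJ cells, read out with a viability assay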
Description: SANGER: Inhibition of human P31-FUJ cell growth in a cell viability assay.

[38] = tested on: PA-1; assay: cells; details: Homo sapiens;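 further: IC50 for suppression of PA-1 cell proliferation, determined with a cell viability read-out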
Description: SANGER: Inhibition of human PA-1 cell growth in a cell viability assay.

[39] = tested on: PANC-03-27; assay: cells; details: Homo sapiens
Description: SANGER: Inhibition of human PANC-03-27 cell growth in a cell viability assay.

[40] = tested on: PC-14; assay: cells; details: Homo sapiens;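 further: cell viability assay measuring inhibition of PC-14 cell growth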
Description: SANGER: Inhibition of human PC-14 cell growth in a cell viability assay.

[41] = tested on: PLC-PRF-5; assay: cells; details: Homo sapiens;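 further: growth inhibition of human PLC-PRF-5 cells, read out with a viability assay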
Description: SANGER: Inhibition of human PLC-PRF-5 cell growth in a cell viability assay.

[42] = tested on: RCM-1; assay: cells; details: Homo sapiens;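 further: growth inhibition of the RCM-1 line, determined with a cell viability readout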
Description: SANGER: Inhibition of human RCM-1 cell growth in a cell viability assay.

[43] = tested on: RPMI-2650; assay: cells; details: Homo sapiens
Description: SANGER: Inhibition of human RPMI-2650 cell growth in a cell viability assay.

[44] = tested on: RVH-421; assay: cells; details: Homo sapiens
Description: SANGER: Inhibition of human RVH-421 cell growth in a cell viability assay.

[45] = tested on: SCC-25; assay: cells; details: Homo sapiens;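 further: growth inhibition of SCC-25 cells, measured with a cell viability assay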
Description: SANGER: Inhibition of human SCC-25 cell growth in a cell viability assay.

[46] = tested on: SK-MEL-30; assay: cells; details: Homo sapiens;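 further: growth inhibition of SK-MEL-30 cells, determined with a cell viability assay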
Description: SANGER: Inhibition of human SK-MEL-30 cell growth in a cell viability assay.

[47] = tested on: SN12C; assay: cells; details: Homo sapiens;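 further: growth inhibition of human SN12C cells, measured by a cell viability assay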
Description: SANGER: Inhibition of human SN12C cell growth in a cell viability assay.

[48] = tested on: SU-DHL-1; assay: SANGER: Inhibition of human SU-DHL-1 cell growth in a cell viability assay.
[49] = tested on: T-24; assay: cells; details: Homo sapiens;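 further: growth inhibition of T-24 cells, read out with a cell viability assay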
Description: SANGER: Inhibition of human T-24 cell growth in a cell viability assay.

[50] = tested on: 23132-87; assay: cells; details: Homo sapiens
Description: SANGER: Inhibition of human 23132-87 cell growth in a cell viability assay.

[51] = tested on: 647-V; assay: cells; details: Homo sapiens;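 further: growth inhibition of 647-V cells, read out with a cell viability assay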
Description: SANGER: Inhibition of human 647-V cell growth in a cell viability assay.

[52] = tested on: A2058; assay: cells; details: Homo sapiens;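 further: reduction of A2058 cell growth, read out with a viability assay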
Description: SANGER: Inhibition of human A2058 cell growth in a cell viability assay.

[53] = tested on: A253 cell line; assay: cells; details: Homo sapiens;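 further: growth inhibition of A253 cells, read out with a cell viability assay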
Description: SANGER: Inhibition of human A253 cell growth in a cell viability assay.

[54] = tested on: A673; assay: cells; details: Homo sapiens;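 further: growth inhibition of human A673 cells, read out through a cell viability assay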
Description: SANGER: Inhibition of human A673 cell growth in a cell viability assay.

[55] = tested on: ARH-77; assay: cells; details: Homo sapiens;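 further: growth inhibition of ARH-77 cells, read out by a cell viability assay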
Description: SANGER: Inhibition of human ARH-77 cell growth in a cell viability assay.

[56] = tested on: BXPC-3; assay: cells; details: Homo sapiens;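 further: growth inhibition of human BxPC-3 cells, read out by a cell viability assay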
Description: SANGER: Inhibition of human BxPC-3 cell growth in a cell viability assay.

[57] = tested on: C-33-A; assay: cells; details: Homo sapiens;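 further: cell viability assay measuring growth inhibition of C-33-A cells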
Description: SANGER: Inhibition of human C-33-A cell growth in a cell viability assay.

[58] = tested on: CAL-51; assay: cells; details: Homo sapiens;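 further: human CAL-51 cell line, growth inhibition read out via a cell viability assay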
Description: SANGER: Inhibition of human CAL-51 cell growth in a cell viability assay.

[59] = tested on: CAL-62; assay: cells; details: Homo sapiens;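 further: growth inhibition of CAL-62 cells, read out with a cell viability assay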
Description: SANGER: Inhibition of human CAL-62 cell growth in a cell viability assay.

[60] = tested on: TYK-nu; assay: cells; details: Homo sapiens;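 further: growth inhibition of human TYK-nu cells, read out by a cell viability assay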
Description: SANGER: Inhibition of human TYK-nu cell growth in a cell viability assay.

[61] = tested on: UMUC3; assay: cells; details: Homo sapiens;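 further: growth inhibition of human UM-UC-3 cells, read out with a cell viability assay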
Description: SANGER: Inhibition of human UM-UC-3 cell growth in a cell viability assay.

Fc1cc(-c2cc[nH]/c(=N/c3ccc(-n4cnc(N5CCOCC5)n4)cc3)n2)cc(N2CCOCC2)c1
pIC50 [1]: 6.27
pIC50 [2]: 5.51
pIC50 [3]: 5.33
pIC50 [4]: 5.99
pIC50 [5]: 6.42
pIC50 [6]: 5.52
pIC50 [7]: 6.38
pIC50 [8]: 5.91
pIC50 [9]: 5.84
pIC50 [10]: 6.45
pIC50 [11]: < 5.29
pIC50 [12]: 6.78
pIC50 [13]: 6.39
pIC50 [14]: 6.35
pIC50 [15]: 6.35
pIC50 [16]: 6.17
pIC50 [17]: 6.28
pIC50 [18]: 6.08
pIC50 [19]: 5.33
pIC50 [20]: 6.02
pIC50 [21]: 6.17
pIC50 [22]: 5.82
pIC50 [23]: 6.23
pIC50 [24]: 6.23
pIC50 [25]: 6.46
pIC50 [26]: 6.29
pIC50 [27]: 6.77
pIC50 [28]: 5.78
pIC50 [29]: < 5.29
pIC50 [30]: 6.44
pIC50 [31]: 6.29
pIC50 [32]: < 5.29
pIC50 [33]: 5.34
pIC50 [34]: 6.26
pIC50 [35]: < 5.29
pIC50 [36]: 5.42
pIC50 [37]: 5.33
pIC50 [38]: 6.99
pIC50 [39]: 6.57
pIC50 [40]: 6.06
pIC50 [41]: 5.40
pIC50 [42]: 5.75
pIC50 [43]: 6.65
pIC50 [44]: 6.38
pIC50 [45]: 6.71
pIC50 [46]: 6.23
pIC50 [47]: 5.94
pIC50 [48]: 6.46
pIC50 [49]: 5.54
pIC50 [50]: 6.21
pIC50 [51]: 6.40
pIC50 [52]: 6.30
pIC50 [53]: 6.58
pIC50 [54]: 5.95
pIC50 [55]: 6.24
pIC50 [56]: 6.45
pIC50 [57]: 6.60
pIC50 [58]: 6.66
pIC50 [59]: 6.05
pIC50 [60]: 5.58
pIC50 [61]: 5.90

Source: ChEMBL document CHEMBL1201861, “Genomics of Drug Sensitity in Cancer screening data, Wellcome Trust Sanger Institute”
